Measured values reported in patent publication US10537535B2, “Histone deacetylase inhibitors” (The Regents of the University of California, priority 2015, dated 2020).

How the values were obtained:
human HDAC2 = biological target: T1, human HDAC2 (Homo sapiens, UniProt Q92769); test: Fluorometric HDAC activity assay, purified human HDAC2; type: biochemical; conditions: purified human HDAC2, n=4-5
T1 construct: purchased BPS Bioscience 50062
Procedure: (§1) In order to directly test whether diacetyl acts as an inhibitor of HDACs, in vitro acetylation assays was performed with purified human HDACs. In this example, β-hydroxybutyrate (a naturally-occurring HDAC inhibitor secreted by the liver, targeting zinc-dependent HDACs) was used for comparison. HDAC activity of class I HDACs (HDAC1, 2, 3 and 8) was measured with the fluorometric HDAC Activity Assay kit: HDAC1 (10011563, Cayman Chemical, Ann Arbor, Mich.), HDAC2, HDAC 3 and HDAC 8 (50062, 50073 and 50068, BPS Bioscience, San Diego, Calif.), according to the manufacturer's instructions.

Gr63a = test: Whole mount RNA in situ of adult Drosophila antenna Gr63a; type: in vivo; conditions: 5 days; odor 1 1% on filter paper, sodium butyrate 10 mM fed; vs untreated or mock
Procedure: For five days, Drosophila were exposed to 1% diacetyl (odor 1) on filter paper; fed known HDAC inhibitor sodium butyrate (Na-but; 10 mM); or fed known HDAC inhibitor valproic acid (10 mM).

human HDAC3 = biological target: T2, human HDAC3 (Homo sapiens, UniProt O15379); test: Fluorometric HDAC activity assay, purified human HDAC3; type: biochemical; conditions: purified human HDAC3, n=4-5
T2 construct: purchased BPS Bioscience 50073
T2 sequence (O15379 whole entry): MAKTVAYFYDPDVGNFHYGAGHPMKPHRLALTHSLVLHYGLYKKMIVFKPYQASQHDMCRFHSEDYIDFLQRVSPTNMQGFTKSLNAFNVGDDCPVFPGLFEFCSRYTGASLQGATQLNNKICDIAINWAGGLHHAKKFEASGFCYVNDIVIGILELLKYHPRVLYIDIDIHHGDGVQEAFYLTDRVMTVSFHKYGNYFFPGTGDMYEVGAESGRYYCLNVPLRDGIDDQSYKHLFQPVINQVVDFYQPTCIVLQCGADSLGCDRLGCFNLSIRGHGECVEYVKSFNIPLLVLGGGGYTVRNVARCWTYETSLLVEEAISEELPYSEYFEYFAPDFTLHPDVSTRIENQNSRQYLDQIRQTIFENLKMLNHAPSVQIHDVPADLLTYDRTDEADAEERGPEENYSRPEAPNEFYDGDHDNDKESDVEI
T2 sequence (Q9Y618 395-489 partner limits assumed): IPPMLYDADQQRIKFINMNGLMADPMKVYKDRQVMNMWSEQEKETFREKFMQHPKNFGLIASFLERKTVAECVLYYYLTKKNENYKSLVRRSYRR
Procedure: as §1

[1] = system: H3K9 acetylation in HEK293 cells; test: Western blot of histone acetylation in HEK293 nuclear extracts: H3K9; type: cell-based, human
Procedure: The effect of diacetyl on histone acetylation was further investigated using direct analysis of histone 3K9 acetylation in HEK cells. In vivo activity of diacetyl was determined by gel electrophoresis chromatography of HEK cell lysate exposed to 0 μM, 1 μM and 10 μM of diacetyl (odor 1) in whole HEK cell lysates. […] Proliferating cell nuclear antigen (PCNA; 29 kDa) is a nuclear protein included as a loading control for nuclear protein extracts.
In order to test whether diacetyl can increase acetylation of histones in vivo, human HEK293 cells were used, which offer a tractable system to prepare nuclear extracts. The cells were exposed to different doses of diacetyl for 2 or 6 hours, and monitored histone acetylation levels by Western blot analysis from nuclear extract. […] The acetylation levels of H3K14 and H4K5 were not affected (FIG. 5A).
Human embryonic kidney 293 (HEK293) cells were grown in 100 mm cell culture dishes with Dulbecco's modified Eagle's medium (DMEM) (10-013, Corning, Manassas, Va.), supplemented with 10% fetal bovine serum (FBS) (26140-079, Gibco, Carlsbad, Calif.) at 37° C. with 5% CO2. Cells that were ˜80% confluent were treated with freshly-prepared medium supplemented with diacetyl at concentrations indicated. In order to prevent diffusion of diacetyl odor from the treatment dishes to the outside environment, the cell culture dishes were put into a custom-made container (155.6×155.6×85.7 mm) with a charcoal filter top. The cells for non-treatment controls were handled in the same manner without adding diacetyl to the medium.
Nuclear extracts of HEK293 cells were prepared according to a protocol described previously (Andrews and Faller, 1991), with minor modifications. In brief, HEK293 cells were washed twice with cold phosphate-buffered saline (PBS) and lysed with hypotonic buffer (10 mM HEPES-KOH [pH 7.9], 1.5 mM MgCl2, 10 mM KCl, protease inhibitor cocktail [Roche], 1 mM DTT, 1 mM TSA). Following a brief centrifugation, the pellet was resuspended in hypertonic buffer (20 mM HEPES-KOH [pH 7.9], 25% glycerol, 420 mM NaCl 1.5 mM MgCl2, 0.2 mM EDTA, protease inhibitor cocktail (04693159001, Roche, Indianapolis, Ind.), 1 mM DTT, 1 mM TSA). The supernatant was recovered as nuclear extract.
Proteins in the nuclear extracts (60 μg protein) were separated by SDS-PAGE gels (456-1043, Bio-Rad, Hercules, Calif.), transferred onto PVDF membranes (162-0174, Bio-Rad), and incubated with anti-histone antibodies: acetylated H3K9 (1/2000: ab4441, abeam, Cambridge, Mass.), acetylated H3K14 (1/5000: 06-911, EMD Millipore, Billerica, Mass.), acetylated H4K5 (1/2000: 07-327, EMD Millipore). Bound antibody was detected by horseradish peroxidase-conjugated anti-rabbit secondary antibody (1/20000: 1705046, Bio-Rad) and developed using Clarity™ Western ECL Substrate (1705060, Bio-Rad). Signals were detected and captured by ImageQuant™ LAS 4000 mini (GE healthcare, Pittsburgh, Pa.), and band intensities were quantified with ImageJ software. H3K9 acetylation intensity in individual lanes was reported relative to the normalized Mock treatment (Mock H3K9ace/Mock PCNA), and calculated using this formula: Relative H3K9ace intensity for each timepoint=(Diacetyl H3K9ace/diacetyl PCNA)/(Mock H3K9ace/Mock PCNA).

T1 sequence (Q92769 whole entry): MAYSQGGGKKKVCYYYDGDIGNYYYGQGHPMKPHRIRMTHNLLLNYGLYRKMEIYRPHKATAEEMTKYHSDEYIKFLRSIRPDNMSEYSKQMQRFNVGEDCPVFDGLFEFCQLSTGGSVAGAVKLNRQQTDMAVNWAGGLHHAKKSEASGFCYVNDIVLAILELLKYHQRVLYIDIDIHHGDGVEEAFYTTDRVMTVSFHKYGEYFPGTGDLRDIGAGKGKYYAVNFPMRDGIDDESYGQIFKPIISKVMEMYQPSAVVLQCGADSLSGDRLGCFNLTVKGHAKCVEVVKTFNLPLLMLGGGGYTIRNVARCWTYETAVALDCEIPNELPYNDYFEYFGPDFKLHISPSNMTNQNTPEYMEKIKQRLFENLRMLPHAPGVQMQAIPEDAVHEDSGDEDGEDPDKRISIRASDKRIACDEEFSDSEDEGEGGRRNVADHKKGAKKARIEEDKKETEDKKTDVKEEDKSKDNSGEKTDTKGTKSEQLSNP

For `CC(=O)C(C)=O` [diacetyl, 2,3-Butanedione], the IC50 (human HDAC2) was 11.2 mM, the “Gr63a expression in antenna (RNA in situ)” value (Gr63a) was “over-expression” and the IC50 (human HDAC3) was 7.72 mM. The H3K9 acetylation level ([1]; 100 μM, 120 hrs) was “significantly higher levels”, the H3K9 acetylation level ([1]; 100 μM, prolonged exposure 3-5 days, onset) was “increased only after 96 hrs” and the H3K9 acetylation level ([1]; 1 mM, 2 or 6 hours) was “did not alter”. For the same molecule, the H3K9 acetylation level ([1]; 10 mM, 2 hours, vs mock) was “significantly increased”, the H3K9 acetylation level ([1]; 10 mM, 6 hours) was “further increased” and the “level of acetyl H3K9 (H3K9Ace)” value ([1]; HEK cells, 0 μM, 1 μM and 10 μM, FIG. 1D) was “increased with increasing concentrations”.
